# System: HEK293E cells
# Assay: Transient IgG expression, batch titer by ELISA, VPA concentration series (Example 1)
# Type: cell-based, Human
# Settings: for Fold increase over control / Batch titer: IgG, day 5 after transfection; for Batch titer: 37° C.
# Description: 10 million suspension-adapted HEK293E cells were resuspended in 0.5 ml of Ex-Cell 293 HEK 293 serum-free medium with 4 mmol/l L-glutamine (Cat. No. 14571C-1000 M; Lot No. 6A0093; SAFC Biosciences, Lenexa, Kans., USA, “Ex-Cell” medium; note: “Ex-Cell” medium-as used herein-refers to a medium comprising 4 mmol/l L-glutamine) in a 50-ml filter tube each (TPP AG, Trasadingen, Switzerland; Cat. No. 87050, Lot 20050174). In a separate set, 10 million suspension-adapted CHO DG44 cells were resuspended in 0.5 ml of ProCHO5 serum-free medium with 4 mmol/[…] hypoxanthine and 0.194 g/l thymidine (BioWhittaker (Lonza), Belgium; Cat. No. BE12-[…]; Lot No. 7 MB0040; “ProCHO5” medium; note: “ProCHO5” medium-as used herein-refers to a medium comprising 4 mmol/[…] hypoxanthine and 0.194 g/l thymidine) in a 50-ml filter tube each (TPP AG, Trasadingen, Switzerland; Cat. No. 87050, Lot 20050174). Then 12.5 μg plasmid DNA at a concentration of 1 μg/μl was added in each tube with the following composition 50% (6.25 μg) p-LC (SEQ ID NO: 1) 50% (6.25 μg) p-HC (SEQ ID NO: 3). Plasmid p-LC comprises the genetic information for the production of the light chain of an IgG antibody, plasmid p-HC comprises the genetic information for the production of the heavy chain of an IgG antibody. The particular vector constructs used in the present invention can also be obtained from the inventors. The inventors can be contacted via e-mail at […]. Moreover, commercial services do exist that produce any desired nucleotide sequence even comprising several kilobase pairs including complete expression cassettes in plasmid backgrounds (e.g., Invitrogen, Carlsbad, USA; Geneart, Germany.) Thus, providing the genetic sequence information of the plasmids should enable one of ordinary skill in the art to order the plasmids of the present invention at one of the commercial services listed. After shortly mixing the DNA with the cells by gentle shaking, 25 μg of 25-kd linear polyethyleneimine (“PEI”; Polysciences, Eppelheim, Germany; [2]) were added at a concentration of 1 μg/μl to each of the tubes. After shortly mixing by gentle shaking, the filter tubes containing the cells together with the DNA and PEI were transferred into an orbital shaker (Kühner Shaker Cabinet ISF-4-W, “Kühner shaker”, Kühner AG, Birsfelden, Switzerland), and the cells were incubated for 4 hours at 37° C. in a 5% CO2 atmosphere under shaking at 180 rpm. After that time, 4.5 ml of Ex-Cell medium were added to each of the filter tubes containing HEK 293 cells and 4.5 ml of Pro-CHO5 were added to each of the filter tubes containing CHO DG44 cells. Then, valproic acid was added to each of the tubes at the corresponding final concentration. The cells then were returned into the Kühner shaker and incubated at 37° C. in a 5% CO2 atmosphere under shaking at 180 rpm. […] The ELISA was performed as published in prior art. In short, Goat anti-human kappa light chain IgG (Biosource) was used for coating the ELISA-plates, and with AP-conjugated goat anti-human gamma chain IgG (Biosource) the synthesized IgG1 was detected. NPP was used as a substrate for the alkaline phosphatase. Absorption was measured at 405 nm against 490 nm using a microplate reader (SPECTRAmaxTM340; Molecular Devices, Palo Alto, Calif., USA).
structure (smiles),measurement,setting,value
"CCCC(CCC)C(=O)O [VPA, valproic acid]",Fold increase over control,1.3 mmol/l final VPA,2.2 fold
same,Batch titer,1.3 mmol/l final VPA,33.0 ± 4.3 mg/L
same,Fold increase over control,2.5 mmol/l final VPA,4.1 fold
same,Batch titer,2.5 mmol/l final VPA,61.8 ± 5.7 mg/L
same,Fold increase over control,4 mmol/l final VPA,5.3 fold
same,Batch titer,4 mmol/l final VPA,79.5 ± 3.6 mg/L
same,Fold increase over control,5 mmol/l final VPA,4.3 fold
same,Batch titer,5 mmol/l final VPA,64.5 ± 6.5 mg/L
same,Fold increase over control,7.5 mmol/l final VPA,1.8 fold
same,Batch titer,7.5 mmol/l final VPA,27.0 ± 3.1 mg/L
same,Fold increase over control,11.3 mmol/l final VPA,0.9 fold
same,Batch titer,11.3 mmol/l final VPA,13.5 ± 2.1 mg/L
same,optimal final concentration,"for batch titer, HEK293E cells, day 5",around 4 mmol/l
